The text below walks through data of ChEMBL document CHEMBL1201862, “PubChem BioAssay data set” (2004).

SMILES strings stand for the structures.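 Where inhibition never reached the appropriate level, the endpoint shown equals the highest concentration tested. Otherwise, values were interpolated linearly from a five-concentration, 48-hour dose response in 96-well plates. Here, GI50 denotes the concentration required for 50% inhibition of growth.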 The source made the active and inactive calls. No stated cut-off is given here; in the data, active = GI50 up to about 1.1 µM and inactive = higher.

Some test systems named below: KM12; SN12C; SF-539; NCI-H23; SR; A549; MOLT-4; SK-MEL-2; HL-60; CAKI-1; MDA-MB-231; T47D; EKVX; SK-MEL-28; HOP-92; Malme-3M; HT-29; MDA-N; SNB-75.
Holding throughout (assay): NCI-60 cell line screen, 48 h

With `O=C(O)c1nc2cc(C(F)(F)F)ccc2[nH]c1=O`, the GI50 in the experiment with KM12, in the experiment on SN12C, in the experiment with SF-539, in the experiment with NCI-H23, with SR and in the experiment on A549 was > 100 µM (inactive) throughout. Moreover, the GI50 with MOLT-4, with SK-MEL-2, in the experiment with HL-60, in the experiment with CAKI-1, with MDA-MB-231 and in the experiment on T47D was > 100 µM (inactive) in each case. For the same compound, the GI50 with EKVX, with SK-MEL-28, in the experiment with HOP-92, with Malme-3M, in the experiment on HT-29 and in the experiment with MDA-N was > 100 µM (inactive) each time.
Take `CC(=O)NNC1=NN(C(C)=O)C2(S1)C(=O)Nc1ccc(C)cc12` (centres undefined): the GI50 was 57.7 µM (inactive) in the experiment with KM12; > 100 µM (inactive) with SN12C; > 100 µM (inactive) in the experiment with SF-539; > 100 µM (inactive) with NCI-H23; 55.5 µM (inactive) in the experiment on SR; 94 µM (inactive) with A549. The GI50 was > 100 µM (inactive) in the experiment on MOLT-4; 38.3 µM (inactive) in the experiment on HL-60; 73.6 µM (inactive) with CAKI-1; 80.2 µM (inactive) in the experiment on MDA-MB-231; 23 µM (inactive) in the experiment on T47D; 78.9 µM (inactive) with EKVX. Moreover, the GI50 in the experiment with SK-MEL-28 is 78.3 µM (inactive); in the experiment with HOP-92, 29 µM (inactive); in the experiment on Malme-3M it was 49.7 µM (inactive); in the experiment on HT-29, > 100 µM (inactive); in the experiment with MDA-N, > 100 µM (inactive); in the experiment with SNB-75 it was 45.7 µM (inactive).
As for `COCCOC(=O)c1c(C)[n+]([O-])c2cc(Cl)c(Cl)cc2[n+]1[O-]`, the GI50 is 10.8 µM (inactive) in the experiment on KM12; 20 µM (inactive) in the experiment on SN12C; 22.6 µM (inactive) in the experiment on SF-539; 19.8 µM (inactive) in the experiment with NCI-H23; 4.76 µM (inactive) with SR; 12.7 µM (inactive) with A549. The GI50 in the experiment on MOLT-4 was 13.1 µM (inactive); with SK-MEL-2, 25.3 µM (inactive); with HL-60 it was 6.41 µM (inactive); in the experiment with CAKI-1, 19 µM (inactive); with MDA-MB-231, 24.1 µM (inactive); in the experiment on T47D, 4.68 µM (inactive). In addition, the GI50 was 17.1 µM (inactive) in the experiment on EKVX; 28.4 µM (inactive) with SK-MEL-28; 5.21 µM (inactive) in the experiment on HOP-92; 18.5 µM (inactive) in the experiment with Malme-3M; 18.7 µM (inactive) in the experiment on HT-29; 23.2 µM (inactive) in the experiment on MDA-N.
For the compound `COC(=O)c1ccc2c(c1)CC1(C2)Cc2cc3c(c(C(=O)OC)c2C1)CCCC3` (centres undefined), the GI50 in the experiment on KM12 is > 100 µM (inactive); with SN12C, 50.1 µM (inactive); with SF-539, > 100 µM (inactive); in the experiment on NCI-H23, 65.5 µM (inactive); in the experiment on SR, 69.5 µM (inactive); with A549, 83.9 µM (inactive). The GI50 with MOLT-4 was 42.7 µM (inactive); in the experiment on HL-60 it was 31.5 µM (inactive); in the experiment on CAKI-1 it was 28.8 µM (inactive); in the experiment with MDA-MB-231, 64.3 µM (inactive); in the experiment on T47D, 47.3 µM (inactive); in the experiment with EKVX, 60 µM (inactive). Further, the GI50 was > 100 µM (inactive) in the experiment on SK-MEL-28; 22.4 µM (inactive) in the experiment on HOP-92; > 100 µM (inactive) in the experiment on Malme-3M; 55.7 µM (inactive) in the experiment with HT-29; 93.1 µM (inactive) with MDA-N; 77.6 µM (inactive) in the experiment with SNB-75.
On to `CC1C(OS(=O)(=O)c2ccc3nc(S)sc3c2)CC2C3(C)CCC2(C(C)C(=O)O)C(O)C13` (centres undefined), for which the GI50 in the experiment on KM12 is 19.9 µM (inactive); in the experiment with SN12C, 28 µM (inactive); in the experiment on SF-539 it was 17.6 µM (inactive); with NCI-H23, 17.9 µM (inactive); in the experiment on SR, 11.9 µM (inactive); in the experiment with A549, 21.7 µM (inactive). Also, the GI50 with MOLT-4 was 16.9 µM (inactive); with SK-MEL-2, 29.2 µM (inactive); in the experiment on HL-60 it was 23.7 µM (inactive); in the experiment with CAKI-1 it was 22 µM (inactive); in the experiment on MDA-MB-231, 21.2 µM (inactive); in the experiment on T47D, 21.2 µM (inactive). For the same compound, the GI50 is 31.3 µM (inactive) in the experiment with EKVX; 26.8 µM (inactive) in the experiment on SK-MEL-28; 26.6 µM (inactive) with HOP-92; 27.2 µM (inactive) with Malme-3M; 17.5 µM (inactive) in the experiment with HT-29; 22.4 µM (inactive) with MDA-N.
As for `O=C1c2cc3ccccc3cc2C2(c3ccc(Cl)cc3)NCCN12` (centres undefined), the GI50 was 20.7 µM (inactive) with KM12; 49.5 µM (inactive) in the experiment on SN12C; 23 µM (inactive) in the experiment on SF-539; 22.1 µM (inactive) with NCI-H23; 29 µM (inactive) in the experiment on SR; 28.4 µM (inactive) with A549. Besides, the GI50 in the experiment on MOLT-4 was 33.2 µM (inactive); in the experiment with SK-MEL-2, 24.6 µM (inactive); with HL-60 it was 25.8 µM (inactive); in the experiment with CAKI-1 it was 44.7 µM (inactive); in the experiment on MDA-MB-231 it was 87.7 µM (inactive); with T47D it was 39.7 µM (inactive). Further, the GI50 in the experiment with EKVX is 26.5 µM (inactive); in the experiment with SK-MEL-28, 39.6 µM (inactive); with HOP-92, 34.4 µM (inactive); in the experiment with HT-29, 34.8 µM (inactive); in the experiment with MDA-N, 28.2 µM (inactive); in the experiment on SNB-75, 27.8 µM (inactive).
In the case of `N#Cc1c(N)nc(Sc2ccccc2N)c(C#N)c1-c1ccc(Cl)cc1`, the GI50 in the experiment on KM12 is 12.6 µM (inactive); in the experiment with SN12C, 13.8 µM (inactive); in the experiment with SF-539, 11.8 µM (inactive); in the experiment with NCI-H23 it was 21.4 µM (inactive); in the experiment on SR, 1 µM (active); in the experiment on A549, 9.4 µM (inactive). In addition, the GI50 with MOLT-4 is 1.37 µM (inactive); with SK-MEL-2, 5.14 µM (inactive); with HL-60, > 27.5 µM (inactive); with CAKI-1 it was 17.9 µM (inactive); in the experiment on MDA-MB-231, 9.77 µM (inactive); with T47D, 0.368 µM (active). In addition, the GI50 with EKVX is 4.29 µM (inactive); with SK-MEL-28, 33.6 µM (inactive); with HOP-92, 15.8 µM (inactive); with Malme-3M, 6.61 µM (inactive); in the experiment on HT-29, 7.71 µM (inactive); in the experiment on MDA-N, 9.91 µM (inactive).
With `CC(=O)O[C@H]1C(=O)[C@@]2(C)[C@H]([C@H](OC(=O)c3cccc(C(F)(F)F)c3)[C@]3(O)C[C@H](OC(=O)[C@H](O)[C@@H](NC(=O)c4ccccc4)c4ccccc4)C(C)=C1C3(C)C)[C@]1(OC(C)=O)CO[C@@H]1C[C@@H]2O`, the GI50 with KM12 is < 0.0025 µM (active); in the experiment on SN12C it was 0.00603 µM (active); with SF-539 it was < 0.0025 µM (active); in the experiment with NCI-H23, 0.0115 µM (active); in the experiment with SR, < 0.0025 µM (active); with A549, 0.00261 µM (active). The GI50 in the experiment with MOLT-4 is 0.00427 µM (active); with HL-60, < 0.0025 µM (active); in the experiment with CAKI-1, 0.906 µM (active); in the experiment with MDA-MB-231, 0.0361 µM (active); in the experiment on T47D, 0.00455 µM (active); in the experiment with SK-MEL-28, 1.89 µM (inactive). The GI50 with HOP-92 was 0.52 µM (active); with Malme-3M, 0.00318 µM (active); in the experiment with HT-29 it was < 0.0025 µM (active); in the experiment on MDA-N, < 0.0025 µM (active); with SNB-75, 0.00434 µM (active).
In the case of `Cc1ccc(/N=N/C(=O)NNc2ccc(C)c([N+](=O)[O-])c2)cc1[N+](=O)[O-]`, the GI50 is 31.4 µM (inactive) with SN12C; 30.2 µM (inactive) in the experiment with NCI-H23; 18.9 µM (inactive) in the experiment on SR; 28.8 µM (inactive) in the experiment with A549; 12.5 µM (inactive) in the experiment on MOLT-4; 14.2 µM (inactive) in the experiment on SK-MEL-2. Moreover, the GI50 in the experiment on HL-60 is 17.9 µM (inactive); in the experiment with CAKI-1, 18.8 µM (inactive); with MDA-MB-231 it was 36.6 µM (inactive); with T47D it was 4.45 µM (inactive); in the experiment with SK-MEL-28, 26.1 µM (inactive); in the experiment with Malme-3M, 30.8 µM (inactive). Moreover, the GI50 is 53.2 µM (inactive) with HT-29, 32.7 µM (inactive) in the experiment on MDA-N and 19.6 µM (inactive) in the experiment on SNB-75.
As for `CCOC(=O)c1sc(=S)n(-c2ccc(Cl)cc2)c1-n1cc(-c2ccccc2)c(C#N)c1N`, the GI50 in the experiment on KM12 is > 100 µM (inactive); with SN12C it was 18.6 µM (inactive); in the experiment with SF-539, 19.8 µM (inactive); in the experiment on NCI-H23, 21.8 µM (inactive); with SR it was 17.4 µM (inactive); with A549 it was 18.8 µM (inactive). Also, the GI50 in the experiment with MOLT-4 is > 100 µM (inactive); with SK-MEL-2, 20.4 µM (inactive); with HL-60, 34.2 µM (inactive); with CAKI-1, > 100 µM (inactive); in the experiment with MDA-MB-231, 17.6 µM (inactive); in the experiment on T47D it was 13.1 µM (inactive). The GI50 in the experiment with EKVX is 22.5 µM (inactive); in the experiment with SK-MEL-28, 38.2 µM (inactive); in the experiment with HOP-92 it was 15.4 µM (inactive); in the experiment with HT-29, 51.6 µM (inactive); with MDA-N, 50.8 µM (inactive); in the experiment on SNB-75, 16 µM (inactive).
Regarding `C/C(=N\NC(N)=S)c1ccccn1.OB(O)c1ccccc1`, the GI50 with KM12 is 7.45 µM (inactive); in the experiment on SN12C it was 3.52 µM (inactive); with SF-539, 3.6 µM (inactive); with NCI-H23, 11.3 µM (inactive); with SR, 3.95 µM (inactive); in the experiment on A549, 5.51 µM (inactive). The GI50 was 2.07 µM (inactive) in the experiment with MOLT-4; 1.1 µM (active) with HL-60; 3.63 µM (inactive) in the experiment on CAKI-1; 7.16 µM (inactive) in the experiment on MDA-MB-231; 3.8 µM (inactive) in the experiment with T47D; 4.69 µM (inactive) in the experiment with EKVX. In addition, the GI50 was 9.23 µM (inactive) with SK-MEL-28; 10.4 µM (inactive) in the experiment on HOP-92; 8.63 µM (inactive) in the experiment with Malme-3M; 6.47 µM (inactive) in the experiment on HT-29; 7.53 µM (inactive) in the experiment on MDA-N; 12.9 µM (inactive) with SNB-75.
